Source: US20230016551A1, “METHOD FOR ADMINISTRATION OF URSODEOXYCHOLIC ACID” (SHILPA MEDICARE LIMITED, priority 2020, published 2023)
Several values for one entry are separate records, joined by “and”; a condition that tells them apart may be missing. Identical values can stand only once.

What was measured:
Type in all cases: in vivo, human
[1] = test system: patients with non-alcoholic fatty liver disease; assay: NAFLD patients: gastrointestinal side effects, oral vs intravenous UDCA
Experimental: (§1) The first group of patients was treated with 50 mg/kg/day UDCA orally for first two months (500 mg capsules swallowed after meals on average of 2-3 capsules after breakfast, 3-4 capsules after lunch and 3-4 capsules after dinner). The second group of patients was treated with intravenous schedule of UDCA at a dose of 3500 mg each other day (every 48 hours) for a total of 24 intravenous sessions. The lab examinations were performed at time T0 (beginning of the study) and time T1 (end of second month treatment). Each patient of the two groups was submitted to standard echo graphic classification as follows: • Grade 0: No fatty liver • Grade 1 (Mild): Mild diffuse increase in the echogenicity of liver parenchyma or increased hepatorenal contrast with normal diaphragm and intrahepatic vessel borders. • Grade 2 (Moderate): Moderate diffuse increase in the echogenicity of liver parenchyma and increased hepatorenal contrast with slight impairment of diaphragm and intrahepatic vessel borders. • Grade 3 (Severe): In addition to moderate steatosis there was no visualization of posterior portion of the right lobe of liver, intrahepatic vessel borders and diaphragm.

[2] = test system: patients with biliary colicky pain due to radiolucent gallstones; assay: Dissolution of gallbladder transparent stones and colicky pain, intravenous vs oral UDCA; conditions: for patients with gall stones dissolution by echographic evaluation: n = 10
Experimental: 20 patients were recruited aged 35 years to 65 years with sudden burst of biliary colicky pain due to radiolucent gallstones, diameter 0.3 to […] and altered liver enzymes. Some patients are also […] complaining of quite an intense pain with nausea and vomiting but without fever, negative inflammation markers (ESR, CRP) and slight leukocytosis, no rebound tenderness at the gallbladder manual exploration. […] were administered with 3500 mg of UDCA every 12 hours for 6 days from the cubital vein; the very first infusion at the admission was added with 20 mg hyoscine-N-butyl bromide and 75 mg diclofenac as the patients are distressed by excruciating pain.

[3] = test system: patients with non-alcoholic fatty liver disease; assay: NAFLD patients: liver elastography (stiffness, kPa)
Source text: B. Elastography in Liver: Ultrasound imaging plays a major role in the diagnosis, monitoring and therapeutic decisions of chronic liver diseases. It has many clinical indications: morphological examination of the liver parenchyma and assessment of the risk of chronic liver disease by investigating for signs of dysmorphism and/or portal hypertension; detecting and characterizing liver lesions; monitoring local treatments and assessment of treatment response. Different levels of fibrosis are assessed using a histological score. The most widely used is the METAVIR score, which incorporates five stages of fibrosis: • F0 (no fibrosis), • F1 (portal fibrosis without septa: minimal fibrosis), • F2 (portal fibrosis with a few septa: moderate fibrosis or clinically significant fibrosis), • F3 (septal fibrosis with many septa but no cirrhosis: severe fibrosis) and F4 (cirrhosis). Staging liver fibrosis in patients with chronic liver disease is essential for patient management as it allows: • 1) To identify the severity of the liver damage in order to decide whether or not to start treatment (chronic viral liver disease) to avoid progression to cirrhosis when the fibrosis becomes significant ( ≥F2); • 2) To assess the progression or regression of liver fibrosis during treatment; • 3) To institute specific monitoring to screen for and treat complications (HCC, Esophageal varices) in patients suffering from cirrhosis and even severe fibrosis ( ≥F3). Conventional ultrasound cannot differentiate accurately the different liver fibrosis stages. Existing tools to assess liver fibrosis include liver biopsy (LB), which is invasive, and other non-invasive methods. The main non-invasive method to assess liver fibrosis is based on a physical parameter that measures the tissue elasticity and is called Elastography. It can replace subjective palpation and is intended to image the mechanical properties of tissues and more particularly their stiffness. The Elastography methods are based on a common approach: measurement of deformation induced in a tissue by a force. This technique uses an external mechanical device or an internal acoustic radiation force (ARFI and SWE) to induce shear waves in the tissue to be explored. The diagnostic action mechanism is based on shear wave, which is generated by an external mechanical impulse and whose speed is measured by an ultrasound one-dimensional probe. The one-dimensional probe (3.5 MHz) is mounted along the axis of an electro-dynamic transducer (vibrator). In this way it is possible to define the liver stiffness by measuring the velocity of elastic shear waves in the liver parenchyma generated by the mechanical impulse. The propagation velocity is directly related to the stiffness of the medium, defined by the Young modulus. […] The elasticity is expressed in kPa (kilopascals) and is measured at depth ranging from 25 to 65 mm in a 1 x4 cm area: the assessed liver volume is therefore two hundred times greater than the volume examined in a liver biopsy (LB). The obtained values range from 2.5 kPa to 75 kPa. Mean liver elasticity in “normal” subject is 5.81±1.54 and 5.23±1.59 kPa respectively for men and women.

[4] = test system: patients with non-alcoholic fatty liver disease; assay: NAFLD patients: BMI, liver parameters (GGT, AST, ALT) and liver ultrasound grade, intravenous vs oral UDCA; design: GGT / AST / ALT: unit not given here; conditions: n = 50; for Liver Ultrasound - G: echographic fatty liver grade 0-3; for BMI / ALT / AST / GGT: mean±SD
Experimental: as §1, with “Two groups of patients (each group consisting of 50 patients N=50 as disclosed in Table -1) with non-alcoholic fatty liver disease are taken and standardized with the diet of 1300 calories/day (30% proteins, 30% carbohydrates and 40% fat). The first” for “The first”, “and diaphragm. Values were presented as mean± standard deviation for quantitative variable and percentages for categorical variables. The two groups were compared by student’s t-test for quantitative variable and chi-square for the categorical variables. Changes from baseline to 12 weeks were compared by paired t-test within each group. Wilcoxon test was used for rating variable comparison before and after treatment in each group.” for “and diaphragm.”

[5] = test system: patients with non-alcoholic fatty liver disease; assay: NAFLD patients: liver biopsy histology, histology activity index (HAI) score; design: scale not given here; conditions: individual patients 1-4
Source text: A. Histology Examination: Only four patients in each group has accepted to undergo the liver biopsy (LB) before and after the treatment with intravenous UDCA and oral UDCA.

[6] = oral, 50 mg/kg/day for two months
[7] = oral group, 0.7 g/kg oral UDCA for three months
[8] = intravenous, 3500 mg every 48 hours, 24 sessions, T0
[9] = intravenous, 3500 mg every 48 hours, 24 sessions, T1 (end of second month)
[10] = oral, 50 mg/kg/day for two months, T0
[11] = oral, 50 mg/kg/day for two months, T1 (end of second month)

In the case of `C[C@H](CCC(=O)O)[C@H]1CC[C@H]2[C@@H]3[C@@H](O)C[C@@H]4C[C@H](O)CC[C@]4(C)[C@H]3CC[C@]12C` [UDCA, ursodeoxycholic acid], the “local or systemic side effects during and after administration” value ([1]; intravenous, 3500 mg every 48 hours, 24 sessions) is reported as “No local or systemic side effects were noted”, the tolerability and compliance ([1]; intravenous, compared with the capsules to be swallowed) is reported as “tolerated and preferred in terms of compliance” and the “bloating, share of the patients” value [1, 6] is reported as 20%. The “colicky pain as side effect” value [1, 6] was “moderate colicky pain”, the “diarrhoea, share of the patients” value [1, 6] was 38% and the “nausea, share of the patients” value [1, 6] was 15%. The “reduced appetite, share of the patients” value [1, 6] was 10%, the “adverse effects of parenteral treatment” value ([2]; intravenous 3500 mg every 12 hours for 6 days, 20 patients, first week) was “no adverse effects” and the “patients with gall stones dissolution by echographic evaluation” value ([2]; intravenous group, 3500 mg twice a week for 3 months) was 7 patients. The “average stones volume reduction” value ([2]; oral UDCA group, the remaining patients) was “less than 30%”, the “patients in whom colicky pain reappeared during the first 40 days” value [2, 7] was 4 patients out of 10 and the “patients with gall stones dissolution by echographic evaluation” value [2, 7] was 3 patients. For the same molecule, the “reduction of the sludging concretions and overall stones volume compared with pre-treatment imaging” value ([2]; parenteral group, the remaining 3 patients) was “more than 50%”, the “liver stiffness by elastography (mean ± SD)” value (“liver stiffness … (mean ± SD)” for short) ([3]; METAVIR score F ≥3, intravenous administration, T0) was 20.2±5.7 kPa and the “liver stiffness … (mean ± SD)” value ([3]; METAVIR score F ≥3, intravenous administration, T1) was 9.9±5.6 kPa. For the same molecule, the “liver stiffness … (mean ± SD)” value ([3]; METAVIR score F ≥3, oral administration, T0) was 19.9±7.1 kPa, the “liver stiffness … (mean ± SD)” value ([3]; METAVIR score F ≥3, oral administration, T1) was 12.5±6.9 kPa and the “liver stiffness … (mean ± SD)” value ([3]; METAVIR score F ≥4, intravenous administration, T0) was 25.3±6.5 kPa. For the same molecule, the “liver stiffness … (mean ± SD)” value ([3]; METAVIR score F ≥4, intravenous administration, T1) was 18.5±5.9 kPa, the “liver stiffness … (mean ± SD)” value ([3]; METAVIR score F ≥4, oral administration, T0) was 23.6±6.8 kPa and the “liver stiffness … (mean ± SD)” value ([3]; METAVIR score F ≥4, oral administration, T1) was 19.7±5.8 kPa. The “Liver Ultrasound - G” value [4, 8] was 3±2, the “Liver Ultrasound - G” value [4, 9] was 1±0 and the “Liver Ultrasound - G” value [4, 10] was 3±2. The “Liver Ultrasound - G” value [4, 11] was 2±1, the BMI ([4]; intravenous, 3500 mg every 48 hours, 24 sessions, T0 (beginning of the study)) was 29.06±4.6 kg/m^2 and the ALT [4, 8] was 78.05±5.52. It also gave an AST [4, 8] of 65.54±4.56, a GGT [4, 8] of 19.52±5.82 and an ALT [4, 9] of 52.6±5.65. The AST [4, 9] was 44.56±5.52, the BMI [4, 9] was 26.25±6.2 kg/m^2 and the GGT [4, 9] was 16.77±7.76. It also gave a BMI ([4]; oral, 50 mg/kg/day for two months, T0 (beginning of the study)) of 28.18±3.8 kg/m^2, an ALT [4, 10] of 76.48±4.95 and an AST [4, 10] of 63.25±5.43. The GGT [4, 10] was 22.7±6.43, the ALT [4, 11] was 74.32±5.58 and the AST [4, 11] was 59.43±3.39. For the same molecule, the BMI [4, 11] was 27.67±4.2 kg/m^2, the GGT [4, 11] was 20.83±7.56 and the “HAI score: Fibrosis” value ([5]; intravenous administration, T0) was 3 (2×) and 4 (2×). The “HAI score: Intralobular” value ([5]; intravenous administration, T0) was 0, the “HAI score: Periportal +/- bridging” value ([5]; intravenous administration, T0) was 3 and 2 and 1 (2×) and the “HAI score: Portal inflammation” value ([5]; intravenous administration, T0) was 3 (2×) and 2 (2×). For the same molecule, the “HAI score: Fibrosis” value ([5]; intravenous administration, T1) was 2 and 1 (3×), the “HAI score: Intralobular” value ([5]; intravenous administration, T1) was 0 and the “HAI score: Periportal +/- bridging” value ([5]; intravenous administration, T1) was 1 and 0 (3×). For the same molecule, the “HAI score: Portal inflammation” value ([5]; intravenous administration, T1) was 1 and 0 (2×) and 2, the “HAI score: Fibrosis” value ([5]; oral administration, T0) was 4 (3×) and 3 and the “HAI score: Intralobular” value ([5]; oral administration, T0) was 0. For the same molecule, the “HAI score: Periportal +/- bridging” value ([5]; oral administration, T0) was 1 (2×) and 3 and 2, the “HAI score: Portal inflammation” value ([5]; oral administration, T0) was 3 (2×) and 2 (2×) and the “HAI score: Fibrosis” value ([5]; oral administration, T1) was 3 (2×) and 2 (2×). For the same molecule, the “HAI score: Intralobular” value ([5]; oral administration, T1) was 0, the “HAI score: Periportal +/- bridging” value ([5]; oral administration, T1) was 1 and the “HAI score: Portal inflammation” value ([5]; oral administration, T1) was 2 (3×) and 1.
